Marks after values point to notes of the source that are not given here.
Key:
[1] = test system: glycerol-induced kidney injury; experiment: Glycerol-induced kidney injury (rhabdomyolysis model of AKI) in rats, 24 hours following injection; format: in vivo, rat
Text: Rats were allowed to recover for various periods of time as described in the Results. In Study I, lymphocytes were studied in vitro after recovery for either 2 or 7 days following I/R or sham surgery for evaluation of function in vitro or for FACS analysis. In Study II, the effect of SOCE on kidney injury was studied with the inhibitor YM58483/BPT2 (N-[4-[3,5-Bis(trifluoromethyl)-1H-pyrazol-1-yl]phenyl]-4-methyl-1,2,3-thiadiazole-5-carboxamide; Tocris/Bio-Techne Minneapolis, MN). Rats were pretreated p.o. 2-3 hours prior to surgery with YM58483.BPT2 (1 mg·kg^−1) in sugar-free chocolate pudding following dilution in 100% EtOH, at, a dose previously shown to affect T cell activation in rats. In some experiments, rats were also treated with the IL17Rc (150 ng/day i.p; R&D Systems). In addition, one experiment utilized a model of rhabdomyolysis, induced by injection of 50% glycerol (10 ml/kg) into the hindlimb muscle of rats following 16 hours of water restriction.
(§1) To measure creatinine, tail blood was collected in heparin containing tubes and centrifuged to collect plasma. Plasma creatinine was measured using a Pointe Scientific Analyzer and Creatinine Assay reagents using methods outlined by the manufacturer (Pointe Scientific, Canton MI). Urine was collected for 24 hours by placing rats in metabolic cages and urine volume was determined gravimetrically. Urine creatinine was measured using a colorimetric assay adopted for microplate readers. Creatinine clearance was measured using UCr*V/PCr.
(§2) Freshly harvested kidneys were minced and digested in liberase (2 μg/ml. Roche, Indianapolis IN) for 15 min at 37° C. using Gentle MACs (Miltenyli, San Diego, CA). The digested tissue was filtered through a 100-μm mesh and washed with RPMI containing 10% fetal bovine serum (Invitrogen). Mononuclear cells were isolated using Percol (Sigma) density gradient centrifugation.
(§3) To evaluate protein expression of IL17 or Orai1, Orai2 or Orai3, cells were restimulated with PMA and ionomycin for 6 hours in the presence of monensin (Golgistop, 1 μg·ml, BD Biosciences) permeabilized with saponin ([…]) and stained with relevant antibody. Cells were scanned using flow cytometry (FACSCalibur, BD Biosciences, San Jose, CA) and scans were analyzed using Flowjo software (Tree Star, Ashland, OR).

[2] = test system: progression of CKD induced by high-salt diet following recovery from I/R injury; experiment: AKI-to-CKD progression: unilateral I/R, contralateral nephrectomy and high salt diet in rats (Study III); format: in vivo, rat
Text: Study III was designed to investigate SOCE on progression of CKD induced by high-salt diet following recovery from I/R injury using a model of AKI-to-CKD described previously. Rats acclimated to a standard diet (AIN 76A, Dyets, Bethlehem, PA) containing 0.4% NaCl were subjected to left unilateral I/R or sham surgery and allowed to recover for ˜5 weeks. Rats were then subjected to right unilateral nephrectomy and subsequently exposed to elevated dietary Na+ (AIN76A plus 4% NaCl) for an additional 4 weeks (FIG. 9). Sham-control rats were not subjected to renal pedicle clamping, but were subjected to unilateral nephrectomy. Simultaneous with exposure to high salt diet, rats were randomly assigned to vehicle or YM58483 treatment (1mg·kg^−1·day^−1; p.o.). At the end of all studies, rats were deeply anesthetized with 50-100 mg/kg pentobarbital (Fatal Plus, Vortech, Dearborn, MI) and kidneys harvested for analysis.
as §1
At the time of tissue harvest, kidneys were bisected and one half was fixed by immersion in 10% formalin, embedded in paraffin and 5 μm sections stained with picrosirus red to assess fibrosis. For quantitative analysis, five random images of renal outer medulla were obtained using Leica DMLB (Scientific Instruments, Columbus, OH) microscope with a 20× objective. The percent area of picrosirus red stain was scored in a blinded fashion using Image J (NIH).
Total RNA was obtained from kidney using Trizol and the Zymogen RNA extraction kit and cDNA was prepared using MMLV enzyme (Invitrogen, Carlsburg, CA). Quantitative real time PCR (qPCR) using gene specific primers was performed using ABI 7500 (Applied Biosystems, Foster City, CA). mRNA values were calculated using 2^−ΔΔCt. Specific primers sequences for IL-6 (catalog #Rn01410330_m1), Kim-1 (#Rn00597703_m1) and IL17 (Rn01757168_m1) were purchased from ThermoFisher (Waltham, MA).
as §2, §3
Study III was designed to investigate SOCE on progression of CKD induced by high-salt diet following recovery from I/R injury using a model of AKI-to-CKD described previously. Rats acclimated to a standard dict (AIN 76A, Dyets, Bethlehem, PA) containing 0.4% NaCl were subjected left unilateral I/R or sham surgery and allowed to recover for ˜5 weeks. Rats were then subjected to right unilateral nephrectomy and subsequently exposed to elevated dietary Na+ (AIN76A plus 4% NaCl) for an additional 4 weeks (FIG. 9). Sham-control rats were not subjected to renal pedicle clamping, but were subjected to unilateral nephrectomy. Simultaneous with exposure to high salt dict, rats were randomly assigned to vehicle or YM58483 treatment (1 mg·kg−1·day−1; p.o.). […]

[3] = test system: human blood CD4+ cells; experiment: In vitro stimulation of human blood CD4+ cells from AKI patients with elevated sodium, IL17 response; format: cell-based; settings: 170 mM Na+, overnight (~12 hours)
Method: For in vitro stimulation of human blood cells, primary T cells were isolated from fresh blood using Straight whole blood CD4 kit from Miltneyli Biotech (Miltenyli, San Diego, CA) according to manufactures' protocol. CD4+T cells were plated at a density of 1×10^6 cells/mL in RPMI medium supplemented with FBS. Cells were stimulated with human anti-CD3/CD28 dynabeads (Gibco; Catalogue no 11161D) along with labeled treatment overnight (˜12 hours). T cells were harvested and incubated with monensin for 6 hours, prior to staining for IL-17 (Table 4).

[4] = 24 hours following glycerol injection, mean ± S.E.
[5] = 1 mg/kg/day p.o. during 4 weeks high salt diet

Cc1nnsc1C(=O)Nc1ccc(-n2nc(C(F)(F)F)cc2C(F)(F)F)cc1 [YM58483/BPT2, N-[4-[3,5-Bis(trifluoromethyl)-1H-pyrazol-1-yl]phenyl]-4-methyl-1,2,3-thiadiazole-5-carboxamide]
CD4+ cells per g [1, 4]: 177606 ± 282 cells per g | CD4+/IL-17+ cells per g [1, 4]: 20622 ± 4191* cells per g | CD8+ cells per g [1, 4]: 342433 ± 76011 cells per g | CD8+/IL-17+ cells per g [1, 4]: 19711 ± 6499* cells per g | Serum Creatinine [1, 4]: 3.3 ± 0.4* mg/dl | Total IL-17+ cells per g [1, 4]: 60109 ± 21033* cells per g | rise in serum creatinine ([1]; glycerol model, 24 hours): significantly attenuated | total number of IL17+ expressing cells ([1]; glycerol model, 24 hours): significantly attenuated | Kidney IL6 mRNA expression [2, 5]: significantly attenuated | expression of Kim-1 [2, 5]: significantly attenuated | increase in B cells [2, 5]: significantly attenuated | increase in MΦ/dendritic cells [2, 5]: significantly attenuated | increase in kidney CD4+ cells [2, 5]: significantly attenuated | increase in kidney CD8+ cells [2, 5]: significantly attenuated | increased expression (re-stimulation) of IL17+ cells [2, 5]: significantly attenuated | urinary albumin excretion [2, 5]: significantly attenuated | creatinine clearance (reduction relative to sham) ([2]; end of study, 9 weeks post I/R): significantly attenuated | development of interstitial fibrosis ([2]; picrosirius red, renal outer medulla): significantly attenuated | IL17 response to elevated extracellular sodium [3]: inhibited

— patent US20250073202A1, “METHODS TO TREAT RENAL DISORDERS USING CALCIUM CHANNEL INHIBITORS” (The Trustees of Indiana University, priority 2018, published 2025)
